Data reported in publication PMC2984425, “Safety and pharmacokinetics of novel selective vascular endothelial growth factor receptor-2 inhibitor YN968D1 in patients with advanced malignancies” (BMC Cancer, 2010).

Test system: patients with advanced solid tumors
Assay: Treatment-related adverse events graded by NCI-CTC v3.0
Assay type: in vivo, human
Description: Medical records and laboratory tests were obtained during screening. Physical examination, routine laboratory evaluations, and performance status were assessed at baseline and at specified time points throughout the trial. AEs and concomitant medications were recorded at the end of each cycle. The safety evaluation period extended through 30 days from the last dose of study drug or through recovery to grade 1 or better from all acute toxicities associated with drug administration. Toxicity was evaluated and graded according to the NCI-CTC for Adverse Events, version 3.0.

## N#CC1(c2ccc(NC(=O)c3cccnc3NCc3ccncc3)cc2)CCCC1 [apatinib]
850 mg cohort
  Hoarseness grade 1-2, No.: 1
  Hyperbilirubinemia grade 1-2, %: 23.1%
  Hyperbilirubinemia grade 1-2, No.: 3
  Hypertension grade 1-2, %: 69.2%
  Hypertension grade 1-2, No.: 9
  Infection grade 1-2, %: 23.1%
  Infection grade 1-2, No.: 3
  Mucosal ulcers grade 1-2, %: 15.4%
  Mucosal ulcers grade 1-2, No.: 2
  Neutropenia grade 1-2, %: 30.8%
  Neutropenia grade 1-2, No.: 4
  Neutropenia grade 3-4, %: 15.4%
  Neutropenia grade 3-4, No.: 2
  Pain grade 1-2, %: 23.1%
  Pain grade 1-2, No.: 3
  Proteinuria grade 1-2, %: 38.5%
  Proteinuria grade 1-2, No.: 5
  Proteinuria grade 3-4, %: 7.7%
  Proteinuria grade 3-4, No.: 1
  Rash grade 1-2, %: 7.7%
  Rash grade 1-2, No.: 1
  Thrombocytopenia grade 1-2, %: 15.4%
  Thrombocytopenia grade 1-2, No.: 2
  Thrombocytopenia grade 3-4, %: 7.7%
  Thrombocytopenia grade 3-4, No.: 1
  Transaminase Increased grade 1-2, %: 23.1%
  Transaminase Increased grade 1-2, No.: 3
  Transaminase Increased grade 3-4, %: 15.4%
  Transaminase Increased grade 3-4, No.: 2
  Vomiting grade 3-4, %: 7.7%
  Vomiting grade 3-4, No.: 1
1000 mg cohort
  Anemia grade 3-4, %: 33.3%
  Anemia grade 3-4, No.: 1
  Anorexia grade 1-2, %: 33.3%
  Anorexia grade 1-2, No.: 1
  Fatigue grade 1-2, %: 33.3%
  Fatigue grade 1-2, No.: 1
  Fatigue grade 3-4, %: 33.3%
  Fatigue grade 3-4, No.: 1
  Hand-Food Syndrome grade 3-4, %: 33.3%
  Hand-Food Syndrome grade 3-4, No.: 1
  Hypertension grade 1-2, %: 66.7%
  Hypertension grade 1-2, No.: 2
  Hypertension grade 3-4, %: 33.3%
  Hypertension grade 3-4, No.: 1
  Infection grade 1-2, %: 33.3%
  Infection grade 1-2, No.: 1
  Mucosal ulcers grade 1-2, %: 66.7%
  Mucosal ulcers grade 1-2, No.: 2
  Neutropenia grade 1-2, %: 100%
  Neutropenia grade 1-2, No.: 3
  Pain grade 1-2, %: 33.3%
  Pain grade 1-2, No.: 1
  Thrombocytopenia grade 1-2, %: 33.3%
  Thrombocytopenia grade 1-2, No.: 1
  Transaminase Increased grade 1-2, %: 33.3%
  Transaminase Increased grade 1-2, No.: 1
  Transaminase Increased grade 3-4, %: 33.3%
  Transaminase Increased grade 3-4, No.: 1
Total, all cohorts
  Albinism grade 1-2, %: 2.2%
  Albinism grade 1-2, No.: 1
  Anemia grade 1-2, %: 15.2%
  Anemia grade 1-2, No.: 7
  Anemia grade 3-4, %: 4.3%
  Anemia grade 3-4, No.: 2
  Anorexia grade 1-2, %: 15.2%
  Anorexia grade 1-2, No.: 7
  Diarrhea grade 1-2, %: 13%
  Diarrhea grade 1-2, No.: 6
  Dyspnea grade 1-2, %: 2.2%
  Dyspnea grade 1-2, No.: 1
  Fatigue grade 1-2, %: 21.7%
  Fatigue grade 1-2, No.: 10
  Fatigue grade 3-4, %: 4.3%
  Fatigue grade 3-4, No.: 2
  Hand-Food Syndrome grade 1-2, %: 32.6%
  Hand-Food Syndrome grade 1-2, No.: 15
  Hand-Food Syndrome grade 3-4, %: 13%
  Hand-Food Syndrome grade 3-4, No.: 6
  Hemorrhage grade 1-2, %: 21.7%
  Hemorrhage grade 1-2, No.: 10
  Hemorrhage grade 3-4, %: 2.2%
  Hemorrhage grade 3-4, No.: 1
  Hoarseness grade 1-2, %: 8.7%
  Hoarseness grade 1-2, No.: 4
  Hyperbilirubinemia grade 1-2, %: 6.5%
  Hyperbilirubinemia grade 1-2, No.: 3
  Hyperbilirubinemia grade 3-4, %: 2.2%
  Hyperbilirubinemia grade 3-4, No.: 1
  Hypertension grade 1-2, %: 63%
  Hypertension grade 1-2, No.: 29
  Hypertension grade 3-4, %: 6.5%
  Hypertension grade 3-4, No.: 3
  Infection grade 1-2, %: 21.7%
  Infection grade 1-2, No.: 10
  Mucosal ulcers grade 1-2, %: 17.4%
  Mucosal ulcers grade 1-2, No.: 8
  Mucosal ulcers grade 3-4, %: 4.3%
  Mucosal ulcers grade 3-4, No.: 2
  Neutropenia grade 1-2, %: 34.8%
  Neutropenia grade 1-2, No.: 16
  Neutropenia grade 3-4, %: 8.7%
  Neutropenia grade 3-4, No.: 4
  Pain grade 1-2, %: 26.1%
  Pain grade 1-2, No.: 12
  Pain grade 3-4, %: 8.7%
  Pain grade 3-4, No.: 4
  Proteinuria grade 1-2, %: 34.8%
  Proteinuria grade 1-2, No.: 16
  Proteinuria grade 3-4, %: 13%
  Proteinuria grade 3-4, No.: 6
  Rash grade 1-2, %: 6.5%
  Rash grade 1-2, No.: 3
  Thrombocytopenia grade 1-2, %: 26.1%
  Thrombocytopenia grade 1-2, No.: 12
  Thrombocytopenia grade 3-4, %: 2.2%
  Thrombocytopenia grade 3-4, No.: 1
  Transaminase Increased grade 1-2, %: 28.3%
  Transaminase Increased grade 1-2, No.: 13
  Transaminase Increased grade 3-4, %: 8.7%
  Transaminase Increased grade 3-4, No.: 4
  Vomiting grade 1-2, %: 8.7%
  Vomiting grade 1-2, No.: 4
  Vomiting grade 3-4, %: 2.2%
  Vomiting grade 3-4, No.: 1
All patients, N = 46
  hypertension, drug-related AE, all grades: 69.5%
  proteinuria, drug-related AE, all grades: 47.8%
All patients, most at tumor sites
  bleeding, patients: 23.9%
In vivo
  patients who developed HFS that progressed to grade 3: About 10%
